Measured values as given in PMC5119973 (Cancer Medicine, 2016).
Where “and” joins values, the source holds several entries; their conditions need not be identical. Identical values can stand only once.

Columns and labels:
CDK8 = molecular target: T1, CDK8 (Homo sapiens, UniProt P49336); assay: KINOMEscan active-site competitive binding assay; details: slash = two separate measurements
T1 construct: purchased DiscoveRx (KINOMEscan service)

CDKL2 = molecular target: T2, CDKL2 (Homo sapiens, UniProt Q92772); assay: KINOMEscan active-site competitive binding assay; details: slash = two separate measurements
T2 construct: purchased DiscoveRx (KINOMEscan service)
T2 sequence (Q92772 1-493): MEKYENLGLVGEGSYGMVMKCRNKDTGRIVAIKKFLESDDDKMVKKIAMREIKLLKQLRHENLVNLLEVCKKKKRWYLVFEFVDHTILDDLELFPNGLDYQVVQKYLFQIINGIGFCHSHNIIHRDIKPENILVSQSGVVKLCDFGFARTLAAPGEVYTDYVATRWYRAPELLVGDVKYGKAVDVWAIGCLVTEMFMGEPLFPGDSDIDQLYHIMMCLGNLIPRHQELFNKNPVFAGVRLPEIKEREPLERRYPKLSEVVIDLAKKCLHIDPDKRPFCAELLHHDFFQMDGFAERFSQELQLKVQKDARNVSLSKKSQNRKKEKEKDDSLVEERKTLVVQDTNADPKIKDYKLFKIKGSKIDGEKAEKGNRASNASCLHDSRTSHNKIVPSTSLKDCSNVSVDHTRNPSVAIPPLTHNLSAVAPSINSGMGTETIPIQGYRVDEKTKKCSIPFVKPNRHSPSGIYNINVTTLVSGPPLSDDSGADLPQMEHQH

DDR1 = molecular target: T3, DDR1 (Homo sapiens, UniProt Q08345); assay: KINOMEscan active-site competitive binding assay; details: slash = two separate measurements
T3 construct: purchased DiscoveRx (KINOMEscan service)
T3 sequence (Q08345 19-913): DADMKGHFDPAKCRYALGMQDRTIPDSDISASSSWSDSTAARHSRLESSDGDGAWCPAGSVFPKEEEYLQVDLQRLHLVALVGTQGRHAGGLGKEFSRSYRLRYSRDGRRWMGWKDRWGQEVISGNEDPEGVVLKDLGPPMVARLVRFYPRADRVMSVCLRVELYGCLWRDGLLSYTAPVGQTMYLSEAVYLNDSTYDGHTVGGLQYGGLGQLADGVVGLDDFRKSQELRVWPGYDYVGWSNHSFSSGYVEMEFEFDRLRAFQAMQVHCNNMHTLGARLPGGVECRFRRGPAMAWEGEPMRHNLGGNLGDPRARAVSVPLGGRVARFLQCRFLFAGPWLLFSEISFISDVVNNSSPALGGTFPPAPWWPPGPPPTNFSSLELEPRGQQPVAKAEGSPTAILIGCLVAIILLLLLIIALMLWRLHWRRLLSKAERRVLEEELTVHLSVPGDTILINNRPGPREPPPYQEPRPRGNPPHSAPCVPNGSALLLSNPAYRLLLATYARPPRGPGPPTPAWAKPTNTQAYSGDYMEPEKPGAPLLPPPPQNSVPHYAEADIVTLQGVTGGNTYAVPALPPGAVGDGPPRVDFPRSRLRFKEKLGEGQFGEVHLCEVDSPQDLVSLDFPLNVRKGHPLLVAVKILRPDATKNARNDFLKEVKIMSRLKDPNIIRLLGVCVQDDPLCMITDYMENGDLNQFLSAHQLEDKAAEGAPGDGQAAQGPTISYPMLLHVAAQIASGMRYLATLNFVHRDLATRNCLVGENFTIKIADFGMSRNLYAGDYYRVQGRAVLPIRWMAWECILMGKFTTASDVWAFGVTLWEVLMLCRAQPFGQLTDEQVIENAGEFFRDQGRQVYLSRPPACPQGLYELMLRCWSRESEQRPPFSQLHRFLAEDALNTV

HIPK4 = molecular target: T4, HIPK4 (Homo sapiens, UniProt Q8NE63); assay: KINOMEscan active-site competitive binding assay; details: slash = two separate measurements
T4 construct: purchased DiscoveRx (KINOMEscan service)
T4 sequence (Q8NE63 1-616): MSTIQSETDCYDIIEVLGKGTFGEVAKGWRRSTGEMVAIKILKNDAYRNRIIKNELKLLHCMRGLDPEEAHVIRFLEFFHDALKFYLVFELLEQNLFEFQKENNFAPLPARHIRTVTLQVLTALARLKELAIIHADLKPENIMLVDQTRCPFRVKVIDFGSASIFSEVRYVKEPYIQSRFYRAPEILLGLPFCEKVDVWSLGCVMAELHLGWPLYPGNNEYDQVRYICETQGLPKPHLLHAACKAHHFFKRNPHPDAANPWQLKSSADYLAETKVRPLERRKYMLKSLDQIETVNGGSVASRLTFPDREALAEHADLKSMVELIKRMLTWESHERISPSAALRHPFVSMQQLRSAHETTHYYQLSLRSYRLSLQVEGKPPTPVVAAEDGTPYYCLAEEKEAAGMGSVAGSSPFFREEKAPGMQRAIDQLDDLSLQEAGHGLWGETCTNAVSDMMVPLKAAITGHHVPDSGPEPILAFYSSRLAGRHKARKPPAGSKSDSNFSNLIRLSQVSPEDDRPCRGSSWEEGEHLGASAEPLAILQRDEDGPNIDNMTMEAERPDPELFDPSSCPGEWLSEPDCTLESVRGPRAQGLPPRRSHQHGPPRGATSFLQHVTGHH

TNIK = molecular target: T5, TNIK (Homo sapiens, UniProt Q9UKE5); assay: KINOMEscan active-site competitive binding assay; details: slash = two separate measurements
T5 construct: purchased DiscoveRx
T5 sequence (Q9UKE5 whole entry): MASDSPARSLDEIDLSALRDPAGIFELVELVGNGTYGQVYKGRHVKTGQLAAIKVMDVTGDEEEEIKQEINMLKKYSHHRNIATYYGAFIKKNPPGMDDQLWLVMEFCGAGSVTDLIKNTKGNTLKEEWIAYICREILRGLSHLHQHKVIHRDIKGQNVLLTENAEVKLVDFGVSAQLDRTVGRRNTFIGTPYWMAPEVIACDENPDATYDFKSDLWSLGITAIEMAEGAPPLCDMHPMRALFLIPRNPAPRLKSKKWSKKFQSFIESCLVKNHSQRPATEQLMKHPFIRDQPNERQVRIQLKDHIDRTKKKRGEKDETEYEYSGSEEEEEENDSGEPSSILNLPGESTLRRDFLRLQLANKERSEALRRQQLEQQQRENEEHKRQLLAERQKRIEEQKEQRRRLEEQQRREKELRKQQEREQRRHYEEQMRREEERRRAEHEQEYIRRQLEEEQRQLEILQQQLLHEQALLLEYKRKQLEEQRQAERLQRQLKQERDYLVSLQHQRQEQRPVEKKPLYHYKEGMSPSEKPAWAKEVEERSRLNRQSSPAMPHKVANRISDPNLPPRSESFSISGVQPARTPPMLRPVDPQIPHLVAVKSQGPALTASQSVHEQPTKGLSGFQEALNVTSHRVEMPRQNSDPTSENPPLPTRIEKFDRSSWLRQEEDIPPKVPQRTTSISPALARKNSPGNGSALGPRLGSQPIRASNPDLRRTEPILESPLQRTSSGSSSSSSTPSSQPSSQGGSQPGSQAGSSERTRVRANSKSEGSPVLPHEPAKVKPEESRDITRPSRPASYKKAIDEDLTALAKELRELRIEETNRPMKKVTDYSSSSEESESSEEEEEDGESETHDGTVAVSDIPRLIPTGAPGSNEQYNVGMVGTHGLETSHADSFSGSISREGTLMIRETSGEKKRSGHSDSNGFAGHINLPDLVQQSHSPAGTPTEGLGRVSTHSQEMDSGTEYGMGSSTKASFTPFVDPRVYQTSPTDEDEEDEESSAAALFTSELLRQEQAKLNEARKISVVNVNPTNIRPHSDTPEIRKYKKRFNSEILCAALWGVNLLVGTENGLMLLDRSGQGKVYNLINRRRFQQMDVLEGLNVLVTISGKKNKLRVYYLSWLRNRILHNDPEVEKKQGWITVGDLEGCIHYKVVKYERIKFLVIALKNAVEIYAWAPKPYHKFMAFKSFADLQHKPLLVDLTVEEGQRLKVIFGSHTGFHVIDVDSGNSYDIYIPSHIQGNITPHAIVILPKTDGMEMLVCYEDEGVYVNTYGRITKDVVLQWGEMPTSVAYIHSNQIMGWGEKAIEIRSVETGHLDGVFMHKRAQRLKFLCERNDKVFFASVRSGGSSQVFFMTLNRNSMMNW

TRKC = molecular target: T6, TRKC (Homo sapiens, UniProt Q16288); assay: KINOMEscan active-site competitive binding assay; details: slash = two separate measurements
T6 construct: purchased DiscoveRx
T6 sequence (Q16288 32-839): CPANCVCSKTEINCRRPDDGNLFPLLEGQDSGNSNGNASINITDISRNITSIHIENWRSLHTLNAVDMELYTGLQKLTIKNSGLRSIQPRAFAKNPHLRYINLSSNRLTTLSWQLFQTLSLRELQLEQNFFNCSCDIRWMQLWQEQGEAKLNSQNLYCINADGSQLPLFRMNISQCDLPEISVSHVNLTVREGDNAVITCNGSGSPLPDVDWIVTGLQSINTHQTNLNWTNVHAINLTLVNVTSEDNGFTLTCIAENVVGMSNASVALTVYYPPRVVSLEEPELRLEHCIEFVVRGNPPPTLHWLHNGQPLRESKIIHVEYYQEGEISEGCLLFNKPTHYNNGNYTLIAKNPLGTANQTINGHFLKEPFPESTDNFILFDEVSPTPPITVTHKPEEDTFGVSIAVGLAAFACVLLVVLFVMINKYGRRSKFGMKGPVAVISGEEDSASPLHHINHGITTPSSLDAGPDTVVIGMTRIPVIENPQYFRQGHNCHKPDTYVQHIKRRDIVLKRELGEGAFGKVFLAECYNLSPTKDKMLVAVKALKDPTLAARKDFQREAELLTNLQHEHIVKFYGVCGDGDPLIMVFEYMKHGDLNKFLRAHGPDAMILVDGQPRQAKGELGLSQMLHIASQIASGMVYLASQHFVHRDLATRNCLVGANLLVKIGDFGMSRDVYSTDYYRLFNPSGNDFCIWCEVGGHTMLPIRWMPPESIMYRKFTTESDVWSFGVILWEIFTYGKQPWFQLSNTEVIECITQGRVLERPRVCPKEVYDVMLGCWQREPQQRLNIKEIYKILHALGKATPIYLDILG

HT‐29 = HT‐29 colon cancer xenograft in NMRI nu/nu mice; format: in vivo, mouse; details: end of study day 39
Experimental: Mouse experiments were approved by the relevant regulatory agency of the federal state of Berlin (Landesamt für Gesundheit und Soziales Berlin, approval number G0221/03). Mice were maintained in individually ventilated cages in groups of four mice per cage. They received autoclaved food and bedding (Ssniff, Soest, Germany) and acidified (pH 4.0) tap water ad libitum. The animal facility was equipped with an automatic 12 h light/dark regulation, temperature regulation at 22 ± 2°C, and relative humidity of 50 ± 10%. Female NMRI nu/nu mice (purchased from Charles River, Sulzfeld, Germany) were inoculated with 1 × 10^7 MDA‐MB‐231 or HT‐29 cells, which were allowed to grow subcutaneously to a palpable size of approximately 60–100 mm^3. […] All administrations were performed in the morning, without anesthesia. Tumor volume was determined twice per week using caliper measurements, and the volume was calculated using the formula (D × d^2)/2, with d defined as the minor axis and D as the major axis of the measurement. Tumor growth inhibition was calculated as relative tumor volume in relation to the first treatment day.
Changes in tumor volume were statistically evaluated by two‐way repeated‐measures analysis of variance, followed by Bonferroni correction, using GraphPad Prism 5 (San Diego, CA), and P < 0.05 was regarded as significant. Additionally, body weight of all mice was determined twice weekly, and the health status of the animals, including behavioral changes, was recorded daily.

[1] = Plasma protein binding in vitro (Transil), mouse plasma; format: in vitro ADME
Experimental: A radioactivity analysis was performed by liquid scintillation counting. […] All compounds were tested for stability at the incubation conditions used.

[2] = Calculated free drug concentration in human plasma; format: in vivo
[3] = tested on: lung tumor cell lines expressing wt or mutant DDR2; assay: Preliminary in vitro proliferation, lung tumor cell lines expressing wt or mutant DDR2; format: cell-based; details: unpubl. data
[4] = mouse (CD‐1), male, plasma, arithmetic mean ± SD

T1 sequence (P49336 whole entry): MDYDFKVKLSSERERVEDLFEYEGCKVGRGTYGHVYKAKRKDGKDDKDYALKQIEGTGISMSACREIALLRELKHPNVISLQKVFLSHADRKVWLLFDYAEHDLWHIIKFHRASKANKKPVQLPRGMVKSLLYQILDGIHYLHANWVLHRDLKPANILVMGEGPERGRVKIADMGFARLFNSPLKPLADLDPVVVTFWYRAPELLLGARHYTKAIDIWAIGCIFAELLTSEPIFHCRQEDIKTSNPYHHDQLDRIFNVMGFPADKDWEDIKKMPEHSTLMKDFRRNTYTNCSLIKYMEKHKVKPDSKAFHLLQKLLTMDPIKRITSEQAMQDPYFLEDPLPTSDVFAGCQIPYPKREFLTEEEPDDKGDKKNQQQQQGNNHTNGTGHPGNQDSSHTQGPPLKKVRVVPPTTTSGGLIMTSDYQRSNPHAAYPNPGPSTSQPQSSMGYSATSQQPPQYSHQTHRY

Structure (SMILES)	Kd (CDK8)	Kd (CDKL2)	Kd (DDR1)	Kd (HIPK4)	Kd (TNIK)	Kd (TRKC)	Tumor growth inhibition (%) (HT‐29; 3 mg/kg/day oral for 27 days)	Tumor growth inhibition (%) (HT‐29; 10 mg/kg/day oral for 27 days)	Unbound fraction (%) [1, 4]	Proportion of protein‐bound drug ([1]; murine plasma)	Unbound fraction, fold higher than that of regorafenib ([1]; murine plasma)	Calculated free drug concentration [2]	Inhibition of proliferation [3]	fraction unbound ([1]; male, CD-1, mouse, plasma, mouse (CD‐1), arithmetic mean ± SD)
CNC(=O)c1cc(Oc2ccc(NC(=O)Nc3ccc(Cl)c(C(F)(F)F)c3)c(F)c2)cc[n+]1[O-] [M‐2]	43 nM	76 nM	0.5 nM	15 nM	41 nM	15 nM	35%	59%	0.888 ± 0.033%	more than 99%	approximately 1.5 fold	13.5 nmol/L	only moderate inhibition	
NC(=O)c1cc(Oc2ccc(NC(=O)Nc3ccc(Cl)c(C(F)(F)F)c3)c(F)c2)cc[n+]1[O-] [M‐5]	140 nM	1100 nM	0.4 nM	26 nM	120 nM	56 nM	13%	66%	0.412 ± 0.041%	more than 99%		3.4 nmol/L	only moderate inhibition	
CNC(=O)c1cc(Oc2ccc(NC(=O)Nc3ccc(Cl)c(C(F)(F)F)c3)c(F)c2)ccn1 [Regorafenib, reference compound]	100 nM and 73 nM	48 nM and 58 nM	0.9 nM and 0.8 nM	6.9 nM and 4.5 nM	1100 nM and 970 nM	180 nM and 280 nM	34%	67%	0.575 ± 0.039%	more than 99%		42.1 nmol/L	only moderate inhibition	~0.006
